Test results published in patent publication US12226424B2, “Target protein degradation compounds, their anti-tumor use, their intermediates and use of intermediates” (ShanghaiTech University, priority 2018, dated 2025).
Read-outs that look alike come from different tables or passages of the source.

System: SR cells
Assay: Half inhibitory concentration (IC50) on ALK-positive SR cell proliferation (CCK-8)
Format: cell-based
Conditions: Homo sapiens
Protocol: ALK-positive SR cells (human large cell immunoblastic lymphoma) were purchased from the American Type Culture Collection (ATCC); H3122 cells (human non-small cell lung cancer) were from the Shanghai University of Science and Technology Lin Haifan's research group.
The cells used in this present disclosure were cultured in a 37° C. incubator containing 5% CO2.
SR cells were seeded in 100 μL RPMI1640 complete medium at a density of 10,000 cells/well. 100 μL of the inoculated cells were treated with 0.5 μL diluted PROTAD compound of the present disclosure to be tested at 10 successively decreasing concentrations (starting at the highest concentration of 10 μM; 5-fold serial dilutions) After the cells were treated with the drug for 72 h, cell viability was determined according to the CCK-8 reagent operating instructions. The negative control was DMSO, and the positive control was a commercial inhibitor. After CCK-8 treatment for 2 h, the value of O.D.450 was measured using a microplate reader.

[1] = SR cells, 72 h drug treatment, CCK-8, read-out: IC50 (nM)/ SR cell line

| SMILES | IC50 (SR cells, 72 h, CCK-8, read-out: IC50 on proliferation of ALK-positive cells SR) | IC50 [1] | IC50 (SR, 72 h, read-out: IC50 (nM)/ SR cell line) |
| --- | --- | --- | --- |
| COc1cc(N2CCC(N3CCN(C)CC3)CC2)ccc1Nc1ncc(Cl)c(Nc2ccccc2P(C)(C)=O)n1 [Brigatinib, reference compound] | 10.6 nM | 2.1 ± 1.2 nM | – |
| CCc1cc2c(cc1N1CCN(C3CCN(C(=O)CSc4cccc5c4C(=O)N(C4CCC(=O)NC4=O)C5=O)CC3)CC1)C(C)(C)c1[nH]c3cc(C#N)ccc3c1C2=O (stereo not drawn) [SIAIS219005, 8-(4-(1-(2-((2-(2,6-dioxopiperidin-3-yl)-1,3-dioxoisoindolin-4-yl)thio)acetyl)piperidin-4-yl)piperazin-1-yl)-9-ethyl-6,6-dimethyl-11-oxo-6,11-dihydro-5H-benzo[b]carbazole-3-carbonitrile] | – | 8.7 nM | – |
| CCc1cc2c(cc1N1CCC(N3CCN(C(=O)CCCSc4cccc5c4C(=O)N(C4CCC(=O)NC4=O)C5=O)CC3)CC1)C(C)(C)c1[nH]c3cc(C#N)ccc3c1C2=O (stereo not drawn) [SIAIS219006, 8-(4-(4-(4-((2-(2,6-dioxopiperidin-3-yl)-1,3-dioxoisoindolin-4-yl)thio)butanoyl)piperazin-1-yl)piperidin-1-yl)-9-ethyl-6,6-dimethyl-11-oxo-6,11-dihydro-5H-benzo[b]carbazole-3-carbonitrile] | – | 16.4 nM | – |
| CCc1cc2c(cc1N1CCC(N3CCN(C(=O)CCCCCSc4cccc5c4C(=O)N(C4CCC(=O)NC4=O)C5=O)CC3)CC1)C(C)(C)c1[nH]c3cc(C#N)ccc3c1C2=O (stereo not drawn) [SIAIS219007, 8-(4-(4-(6-((2-(2,6-dioxopiperidin-3-yl)-1,3-dioxoisoindolin-4-yl)thio)hexanoyl)piperazin-1-yl)piperidin-1-yl)-9-ethyl-6,6-dimethyl-11-oxo-6,11-dihydro-5H-benzo[b]carbazole-3-carbonitrile] | – | 50.1 nM | – |
| CCc1cc2c(cc1N1CCC(NC(=O)CSc3cccc4c3C(=O)N(C3CCC(=O)NC3=O)C4=O)CC1)C(C)(C)c1[nH]c3cc(C#N)ccc3c1C2=O (stereo not drawn) [SIAIS219012, N-(1-(3-cyano-9-ethyl-6,6-dimethyl-11-oxo-6,11-dihydro-5H-benzo[b]carbazol-8-yl)piperidin-4-yl)-2-((2-(2,6-dioxopiperidin-3-yl)-1,3-dioxoisoindolin-4-yl)thio)acetamide] | – | 146 nM | – |
| CCc1cc2c(cc1N1CCC(NC(=O)CCCSc3cccc4c3C(=O)N(C3CCC(=O)NC3=O)C4=O)CC1)C(C)(C)c1[nH]c3cc(C#N)ccc3c1C2=O (stereo not drawn) [SIAIS219013, N-(1-(3-cyano-9-ethyl-6,6-dimethyl-11-oxo-6,11-dihydro-5H-benzo[b]carbazol-8-yl)piperidin-4-yl)-4-((2-(2,6-dioxopiperidin-3-yl)-1,3-dioxoisoindolin-4-yl)thio)butanamide] | – | – | 143 nM |
| CCc1cc2c(cc1N1CCC(NC(=O)CCCCCSc3cccc4c3C(=O)N(C3CCC(=O)NC3=O)C4=O)CC1)C(C)(C)c1[nH]c3cc(C#N)ccc3c1C2=O (stereo not drawn) [SIAIS219014, N-(1-(3-cyano-9-ethyl-6,6-dimethyl-11-oxo-6,11-dihydro-5H-benzo[b]carbazol-8-yl)piperidin-4-yl)-6-((2-(2,6-dioxopiperidin-3-yl)-1,3-dioxoisoindolin-4-yl)thio)hexanamide] | – | 101 nM | – |
| CCc1cc2c(cc1N1CCC(NC(=O)COCCOCCSc3cccc4c3C(=O)N(C3CCC(=O)NC3=O)C4=O)CC1)C(C)(C)c1[nH]c3cc(C#N)ccc3c1C2=O (stereo not drawn) [SIAIS219022, N-(1-(3-cyano-9-ethyl-6,6-dimethyl-11-oxo-6,11-dihydro-5H-benzo[b]carbazol-8-yl)piperidin-4-yl)-2-(2-(2-((2-(2,6-dioxopiperidin-3-yl)-1,3-dioxoisoindolin-4-yl)thio)ethoxy)ethoxy)acetamide] | – | 80.5 nM | – |
| COc1cc(N2CCC(NC(=O)CSc3cccc4c3CN(C3CCC(=O)NC3=O)C4=O)CC2)ccc1Nc1ncc(Cl)c(Nc2ccccc2P(C)(C)=O)n1 (stereo not drawn) [SIAIS219133, N-(1-(4-((5-chloro-4-((2-(dimethylphosphoryl)phenyl)amino)pyrimidin-2-yl)amino)-3-methoxyphenyl)piperidin-4-yl)-2-((2-(2,6-dioxopiperidin-3-yl)-1-oxoisoindolin-4-yl)thio)acetamide] | – | 2.9 ± 0.1 nM | – |
| COc1cc(N2CCC(NC(=O)CCSc3cccc4c3CN(C3CCC(=O)NC3=O)C4=O)CC2)ccc1Nc1ncc(Cl)c(Nc2ccccc2P(C)(C)=O)n1 (stereo not drawn) [SIAIS219134, N-(1-(4-((5-chloro-4-((2-(dimethylphosphoryl)phenyl)amino)pyrimidin-2-yl)amino)-3-methoxyphenyl)piperidin-4-yl)-3-((2-(2,6-dioxopiperidin-3-yl)-1-oxoisoindolin-4-yl)thio)propanamide] | – | 2.7 ± 0.8 nM | – |
| COc1cc(N2CCC(NC(=O)CCCSc3cccc4c3CN(C3CCC(=O)NC3=O)C4=O)CC2)ccc1Nc1ncc(Cl)c(Nc2ccccc2P(C)(C)=O)n1 (stereo not drawn) [SIAIS219135, N-(1-(4-((5-chloro-4-((2-(dimethylphosphoryl)phenyl)amino)pyrimidin-2-yl)amino)-3-methoxyphenyl)piperidin-4-yl)-4-((2-(2,6-dioxopiperidin-3-yl)-1-oxoisoindolin-4-yl)thio)butanamide] | – | 0.33 ± 0.02 nM | – |
| COc1cc(N2CCC(NC(=O)CCCCSc3cccc4c3CN(C3CCC(=O)NC3=O)C4=O)CC2)ccc1Nc1ncc(Cl)c(Nc2ccccc2P(C)(C)=O)n1 (stereo not drawn) [SIAIS219136, N-(1-(4-((5-chloro-4-((2-(dimethylphosphoryl)phenyl)amino)pyrimidin-2-yl)amino)-3-methoxyphenyl)piperidin-4-yl)-5-((2-(2,6-dioxopiperidin-3-yl)-1-oxoisoindolin-4-yl)thio)pentanamide] | – | 0.43 ± 0.09 nM | – |
| COc1cc(N2CCC(NC(=O)CCCCCSc3cccc4c3CN(C3CCC(=O)NC3=O)C4=O)CC2)ccc1Nc1ncc(Cl)c(Nc2ccccc2P(C)(C)=O)n1 (stereo not drawn) [SIAIS219137, N-(1-(4-((5-chloro-4-((2-(dimethylphosphoryl)phenyl)amino)pyrimidin-2-yl)amino)-3-methoxyphenyl)piperidin-4-yl)-6-((2-(2,6-dioxopiperidin-3-yl)-1-oxoisoindolin-4-yl)thio)hexanamide] | – | 0.48 ± 0.05 nM | – |
| COc1cc(N2CCC(NC(=O)CCCCCCSc3cccc4c3CN(C3CCC(=O)NC3=O)C4=O)CC2)ccc1Nc1ncc(Cl)c(Nc2ccccc2P(C)(C)=O)n1 (stereo not drawn) [SIAIS219138, N-(1-(4-((5-chloro-4-((2-(dimethylphosphoryl)phenyl)amino)pyrimidin-2-yl)amino)-3-methoxyphenyl)piperidin-4-yl)-7-((2-(2,6-dioxopiperidin-3-yl)-1-oxoisoindolin-4-yl)thio)heptanamide] | – | 0.29 ± 0.01 nM | – |
| COc1cc(N2CCC(NC(=O)COCCSc3cccc4c3CN(C3CCC(=O)NC3=O)C4=O)CC2)ccc1Nc1ncc(Cl)c(Nc2ccccc2P(C)(C)=O)n1 (stereo not drawn) [SIAIS219139, N-(1-(4-((5-chloro-4-((2-(dimethylphosphoryl)phenyl)amino)pyrimidin-2-yl)amino)-3-methoxyphenyl)piperidin-4-yl)-2-(2-((2-(2,6-dioxopiperidin-3-yl)-1-oxoisoindolin-4-yl)thio)ethoxy)acetamide] | – | 1.08 ± 0.1 nM | – |
| COc1cc(N2CCC(NC(=O)COCCOCCSc3cccc4c3CN(C3CCC(=O)NC3=O)C4=O)CC2)ccc1Nc1ncc(Cl)c(Nc2ccccc2P(C)(C)=O)n1 (stereo not drawn) [SIAIS219140, N-(1-(4-((5-chloro-4-((2-(dimethylphosphoryl)phenyl)amino)pyrimidin-2-yl)amino)-3-methoxyphenyl)piperidin-4-yl)-2-(2-(2-((2-(2,6-dioxopiperidin-3-yl)-1-oxoisoindolin-4-yl)thio)ethoxy)ethoxy)acetamide] | – | 5.08 ± 0.62 nM | – |
| COc1cc(N2CCC(NC(=O)COCCOCCOCCSc3cccc4c3CN(C3CCC(=O)NC3=O)C4=O)CC2)ccc1Nc1ncc(Cl)c(Nc2ccccc2P(C)(C)=O)n1 (stereo not drawn) [SIAIS219141, N-(1-(4-((5-chloro-4-((2-(dimethylphosphoryl)phenyl)amino)pyrimidin-2-yl)amino)-3-methoxyphenyl)piperidin-4-yl)-2-(2-(2-(2-((2-(2,6-dioxopiperidin-3-yl)-1-oxoisoindolin-4-yl)thio)ethoxy)ethoxy)ethoxy)acetamide] | – | 5 ± 0.71 nM | – |
| COc1cc(N2CCC(NC(=O)COCCOCCOCCOCCSc3cccc4c3CN(C3CCC(=O)NC3=O)C4=O)CC2)ccc1Nc1ncc(Cl)c(Nc2ccccc2P(C)(C)=O)n1 (stereo not drawn) [SIAIS219142, N-(1-(4-((5-chloro-4-((2-(dimethylphosphoryl)phenyl)amino)pyrimidin-2-yl)amino)-3-methoxyphenyl)piperidin-4-yl)-14-((2-(2,6-dioxopiperidin-3-yl)-1-oxoisoindolin-4-yl)thio)-3,6,9,12-tetraoxatetradecan-1-amide] | – | 7 ± 1 nM | – |
| COc1cc(N2CCC(NC(=O)COCCOCCOCCOCCOCCSc3cccc4c3CN(C3CCC(=O)NC3=O)C4=O)CC2)ccc1Nc1ncc(Cl)c(Nc2ccccc2P(C)(C)=O)n1 (stereo not drawn) [SIAIS219143, N-(1-(4-((5-chloro-4-((2-(dimethylphosphoryl)phenyl)amino)pyrimidin-2-yl)amino)-3-methoxyphenyl)piperidin-4-yl)-17-((2-(2,6-dioxopiperidin-3-yl)-1-oxoisoindolin-4-yl)thio)-3,6,9,12,15-pentaoxaheptadecan-1-amide] | – | 5.53 ± 1.28 nM | – |
| CCc1cc2c(cc1N1CCC(N3CCN(C(=O)COCCSc4cccc5c4CN(C4CCC(=O)NC4=O)C5=O)CC3)CC1)C(C)(C)c1[nH]c3cc(C#N)ccc3c1C2=O (stereo not drawn) [SIAIS249066, 8-(4-(4-(2-(2-((2-(2,6-dioxopiperidin-3-yl)-1-oxoisoindolin-4-yl)thio)ethoxy)acetyl)piperazin-1-yl)piperidin-1-yl)-9-ethyl-6,6-dimethyl-11-oxo-6,11-dihydro-5H-benzo[b]carbazole-3-carbonitrile] | – | 0.17 ± 0.14 nM | – |
